Tests used:
E. faecalis 29212 = test: minimum inhibitory concentration (MIC) against E. faecalis 29212; assay type: cell-based; set-up: minimum inhibitory concentration, E. faecalis 29212: unit not given here
Source text: (§1) In embodiments, the antibacterials of this invention may have useful activity against a variety of organisms. The in vitro activity of compounds of this invention may be assessed by standard testing procedures such as the determination of minimum inhibitory concentration (MIC) by agar dilution.
(§2) Compound A was broken down into smaller structural components and each fraction tested to understand the impact of certain components on the antibacterial properties of the compounds. Based on the understanding of compound A, the compounds (compounds 1 and 2) shown below, were tested further. […] A minimum inhibitory concentration is the lowest concentration of an antimicrobial that will inhibit the visible growth of a microorganism after overnight incubation.
(§3) In accordance with embodiments of the present invention, a variety of compounds have been prepared and tested, as indicated, in part, by the description above. The tables below provide minimum inhibitory concentration data for the identified compounds tested against various bacterial strains.
(§4) Table 1 lists the active compounds and the activity of those compounds for a limited quantity of bacteria. Blank spaces indicate low or no activity.

E. faecal 201 = test: minimum inhibitory concentration (MIC) against E. faecal 201; assay type: cell-based, E. faecalis
Source text: as §1, §2, §3, §4

S. aureus ATCC 29213 = test: minimum inhibitory concentration (MIC) against S. aureus ATCC 29213; assay type: cell-based, Staphylococcus aureus
Source text: as §1, §2, §3, §4

E. faecalis 99 = test: minimum inhibitory concentration (MIC) against E. faecalis 99; assay type: cell-based
Source text: as §1, §2, §3, §4

E. faecium 119-39A = test: minimum inhibitory concentration (MIC) against E. faecium 119-39A; assay type: cell-based
Source text: as §1, §2, §3

S. aureus NRS100 (COL) = test: minimum inhibitory concentration (MIC) against S. aureus NRS100 (COL); assay type: cell-based, Staphylococcus aureus
Source text: as §1, §2, §3

S. aureus VAN1 = test: minimum inhibitory concentration (MIC) against S. aureus VAN1; assay type: cell-based, Staphylococcus aureus
Source text: as §1, §2, §3

S. aureus VAN2 = test: minimum inhibitory concentration (MIC) against S. aureus VAN2; assay type: cell-based, Staphylococcus aureus
Source text: as §1, §2, §3

E. faecium 106 = test: minimum inhibitory concentration (MIC) against E. faecium 106; assay type: cell-based
Source text: as §1, §2, §3

strains of Entercoccus = test: activity (minimum inhibitory concentration testing) against strains of Entercoccus; assay type: cell-based; conditions: result in words; for activity as measured by minimum inhibitory concentration testing against several strains of Entercoccus: FIG. 1
Procedure: (§5) In an embodiment, an initial antibacterial compound was provided and tested. Such compound is identified below as compound A. Compound A (below) is an inhibitor of gram positive bacteria.
as §2

[1] = tested on: several strains of Staphylococcus aureus; test: activity (minimum inhibitory concentration testing) against several strains of Staphylococcus aureus; assay type: cell-based; conditions: FIG. 1, result in words
Procedure: as §2

gram positive bacteria = test: inhibition of gram positive bacteria; assay type: cell-based; conditions: result in words
Source text: as §5

`Oc1ccc(Oc2ccc(-c3noc(-c4ccc(F)cc4)n3)cc2)cc1` [Compound 36, 4-(4-(5-(4-fluorophenyl)-1,2,4-oxadiazol-3-yl)phenoxy)phenol] was tested, and the “minimum inhibitory concentration, E. faecalis 29212” value (E. faecalis 29212) was 64 and the “minimum inhibitory concentration, E. faecal 201” value (E. faecal 201) was 32.
With `N/C(=N\OC(=O)c1ccc(F)cc1)c1ccc(Oc2ccccc2)cc1` [Compound 29, (Z)-4-(phenoxy)-O-(4-fluorobenzoyl)benzamidoxime] the “minimum inhibitory concentration, E. faecalis 29212” value (E. faecalis 29212) was 64 and the “minimum inhibitory concentration, E. faecal 201” value (E. faecal 201) was 128.
In the case of `COc1ccc(-c2noc(-c3ccc(O)cc3)n2)cc1` [Compound 28, 4-(3-(4-methoxyphenyl)-1,2,4-oxadiazol-5-yl)phenol], the “minimum inhibitory concentration, S. aureus ATCC 29213” value (S. aureus ATCC 29213) is reported as 32 and the “minimum inhibitory concentration, E. faecal 201” value (E. faecal 201) is reported as 64.
`O=[N+]([O-])c1ccc(-c2nc(-c3ccc(Oc4ccc(C(F)(F)F)cc4)cc3)no2)cc1` [Compound 15] was tested, and the “minimum inhibitory concentration, E. faecalis 29212” value (E. faecalis 29212) was 8 and the “minimum inhibitory concentration, E. faecal 201” value (E. faecal 201) was 128.
With `c1ccc(COc2ccc(-c3nc(-c4ccc(Oc5ccccn5)cc4)no3)cc2)cc1` [Compound 43, 2-(4-(5-(4-(benzyloxy)phenyl)-1,2,4-oxadiazol-3-yl)phenoxy)pyridine] the “minimum inhibitory concentration, E. faecal 201” value (E. faecal 201) was 64.
`Oc1ccc(-c2nc(-c3ccc(Oc4ccc(C(F)(F)F)cc4)cc3)no2)cc1` [Compound 1, 4-(3-(4-(4-(trifluoromethyl)phenoxy)phenyl)-1,2,4-oxadiazol-5-yl)phenol] was tested, and the “minimum inhibitory concentration, S. aureus ATCC 29213” value (S. aureus ATCC 29213) was 2, the “minimum inhibitory concentration, E. faecalis 29212” value (E. faecalis 29212) was 2 and the “minimum inhibitory concentration, E. faecalis 29212 BH” value (E. faecalis 29212) was 16. For the same compound, the “minimum inhibitory concentration, E. faecal 99 BH” value (E. faecalis 99) was 8, the “minimum inhibitory concentration, E. faecalis 99” value (E. faecalis 99) was 2 and the “minimum inhibitory concentration, E. faecal 201” value (E. faecal 201) was 2. For the same compound, the “minimum inhibitory concentration, E. faecal 201 BH” value (E. faecal 201) was 16, the “minimum inhibitory concentration, E. faecium 119-39A” value (E. faecium 119-39A) was 2 and the “minimum inhibitory concentration, E. faecium 119-39A BH” value (E. faecium 119-39A; E. faecium 119-39A BH) was 8. The “minimum inhibitory concentration, S. aureus NRS100 (COL)” value (S. aureus NRS100 (COL)) was 2, the “minimum inhibitory concentration, S. aureus VAN1” value (S. aureus VAN1) was 2 and the “minimum inhibitory concentration, S. aureus VAN2” value (S. aureus VAN2) was 2. The “minimum inhibitory concentration, E. faecium 106” value (E. faecium 106) was 2, the “minimum inhibitory concentration, E. faecium 106 BH” value (E. faecium 106; E. faecium 106 BH) was 4 and the “activity as measured by minimum inhibitory concentration testing against several strains of Entercoccus” value (strains of Entercoccus) was “good activity”. For the same compound, the “activity as measured by minimum inhibitory concentration testing against several strains of Staphylococcus aureus” value [1] was “good activity”.
With `Oc1ccc(-c2nc(-c3ccc(Oc4ccccn4)cc3)no2)cc1` [Compound 44, 4-(3-(4-(pyridin-2-yloxy)phenyl)-1,2,4-oxadiazol-5-yl)phenol] the “minimum inhibitory concentration, E. faecal 201” value (E. faecal 201) was 32.
`c1ccc(COc2ccc(-c3nc(-c4ccc(Oc5cnccn5)cc4)no3)cc2)cc1` [Compound 40, 2-(4-(5-(4-(benzyloxy)phenyl)-1,2,4-oxadiazol-3-yl)phenoxy)pyrazine] was tested, and the “minimum inhibitory concentration, E. faecal 201” value (E. faecal 201) was 64.
For `N/C(=N\OC(=O)c1ccc([N+](=O)[O-])cc1)c1ccc(Oc2ccc(C(F)(F)F)cc2)cc1` [Compound 14, (Z)-4-(4-(trifluoromethyl)phenoxy)-O-(4-nitrobenzoyl)benzamidoxime], the “minimum inhibitory concentration, E. faecalis 29212” value (E. faecalis 29212) was 128 and the “minimum inhibitory concentration, E. faecal 201” value (E. faecal 201) was 32.
In the case of `Fc1ccc(-c2nc(-c3ccc(Oc4ccc(C(F)(F)F)cc4)cc3)no2)cc1` [Compound A, 5-(4-fluorophenyl)-3-(4-(4-(trifluoromethyl)phenoxy)phenyl)-1,2,4-oxadiazole], the “minimum inhibitory concentration, E. faecalis 29212” value (E. faecalis 29212) is reported as 125, the “minimum inhibitory concentration, E. faecal 201” value (E. faecal 201) is reported as 128 and the “inhibition of gram positive bacteria” value (gram positive bacteria) is reported as “inhibitor”. The “activity against some strains of Entercoccus” value (strains of Entercoccus; some strains of Entercoccus) was “shows activity”.
`Oc1ccc(-c2nc(-c3ccc(Oc4ccncc4)cc3)no2)cc1` [Compound 52, 4-(3-(4-(pyridin-4-yloxy)phenyl)-1,2,4-oxadiazol-5-yl)phenol] was tested, and the “minimum inhibitory concentration, E. faecal 201” value (E. faecal 201) was 32.
For `c1ccc(COc2ccc(-c3nc(-c4ccc(Oc5ccncc5)cc4)no3)cc2)cc1` [Compound 51, 4-(4-(5-(4-(benzyloxy)phenyl)-1,2,4-oxadiazol-3-yl)phenoxy)pyridine], the “minimum inhibitory concentration, E. faecal 201” value (E. faecal 201) was 64.
In the case of `CC(=O)O/N=C(\N)c1ccc(Oc2ccc(C(F)(F)F)cc2)cc1` [Compound 7], the “minimum inhibitory concentration, E. faecalis 29212” value (E. faecalis 29212) is reported as 32, the “minimum inhibitory concentration, E. faecal 99 BH” value (E. faecalis 99) is reported as 512 and the “minimum inhibitory concentration, E. faecal 201” value (E. faecal 201) is reported as 128.
In the case of `Fc1ccc(-c2nc(-c3ccccc3)no2)cc1` [Compound 19, 5-(4-fluorophenyl)-3-phenyl-1,2,4-oxadiazole], the “minimum inhibitory concentration, E. faecalis 29212” value (E. faecalis 29212) is reported as 64 and the “minimum inhibitory concentration, E. faecal 201” value (E. faecal 201) is reported as 128.
With `O=P(O)(O)Oc1ccc(Oc2ccc(-c3noc(-c4ccc(F)cc4)n3)cc2)cc1` [Compound 37, 4-(4-(5-(4-fluorophenyl)-1,2,4-oxadiazol-3-yl)phenoxy)phenyl dihydrogen phosphate] the “minimum inhibitory concentration, E. faecalis 29212” value (E. faecalis 29212) was 500, the “minimum inhibitory concentration, E. faecalis 29212 BH” value (E. faecalis 29212) was 128 and the “minimum inhibitory concentration, E. faecal 99 BH” value (E. faecalis 99) was 500. The “minimum inhibitory concentration, E. faecal 201” value (E. faecal 201) was 32 and the “minimum inhibitory concentration, E. faecal 201 BH” value (E. faecal 201) was 500.
In the case of `Oc1ccc(-c2nc(-c3ccc(Oc4cccnc4)cc3)no2)cc1` [Compound 48, 4-(3-(4-(pyridin-3-yloxy)phenyl)-1,2,4-oxadiazol-5-yl)phenol], the “minimum inhibitory concentration, E. faecal 201” value (E. faecal 201) is reported as 32.
With `COc1ccc(/C(N)=N/OC(=O)c2ccc(F)cc2)cc1` [Compound 25, 4-fluorobenzoyl-O-4-methoxybenzamidoxime] the “minimum inhibitory concentration, E. faecalis 29212” value (E. faecalis 29212) was 256 and the “minimum inhibitory concentration, E. faecal 201” value (E. faecal 201) was 256.
`Oc1ccc(-c2nc(-c3ccc(Oc4ccccc4)cc3)no2)cc1` [Compound 2, 4-(3-(4-phenoxyphenyl)-1,2,4-oxadiazol-5-yl)phenol] was tested, and the “minimum inhibitory concentration, S. aureus ATCC 29213” value (S. aureus ATCC 29213) was 2, the “minimum inhibitory concentration, E. faecalis 29212” value (E. faecalis 29212) was 4 and the “minimum inhibitory concentration, E. faecalis 99” value (E. faecalis 99) was 4. For the same compound, the “minimum inhibitory concentration, E. faecal 201” value (E. faecal 201) was 4, the “minimum inhibitory concentration, E. faecium 119-39A” value (E. faecium 119-39A) was 4 and the “minimum inhibitory concentration, S. aureus NRS100 (COL)” value (S. aureus NRS100 (COL)) was 2. For the same compound, the “minimum inhibitory concentration, S. aureus VAN1” value (S. aureus VAN1) was 2, the “minimum inhibitory concentration, S. aureus VAN2” value (S. aureus VAN2) was 2 and the “minimum inhibitory concentration, E. faecium 106” value (E. faecium 106) was 4. For the same compound, the “activity as measured by minimum inhibitory concentration testing against several strains of Entercoccus” value (strains of Entercoccus) was “good activity” and the “activity as measured by minimum inhibitory concentration testing against several strains of Staphylococcus aureus” value [1] was “good activity”.
`COc1ccc(-c2noc(-c3ccc(OCc4ccccc4)cc3)n2)cc1` [Compound 27, 5-(4-(benzyloxy)phenyl)-3-(4-methoxyphenyl)-1,2,4-oxadiazole] was tested, and the “minimum inhibitory concentration, E. faecal 201” value (E. faecal 201) was 256.
`COc1ccc(-c2noc(-c3ccc(F)cc3)n2)cc1` [Compound 26, 5-(4-fluorophenyl)-3-(4-methoxyphenyl)-1,2,4-oxadiazole] was tested, and the “minimum inhibitory concentration, E. faecalis 29212” value (E. faecalis 29212) was 64 and the “minimum inhibitory concentration, E. faecal 201” value (E. faecal 201) was 128.
For `c1ccc(COc2ccc(-c3nc(-c4ccc(Oc5cccnc5)cc4)no3)cc2)cc1` [Compound 47, 3-(4-(5-(4-(benzyloxy)phenyl)-1,2,4-oxadiazol-3-yl)phenoxy)pyridine], the “minimum inhibitory concentration, E. faecal 201” value (E. faecal 201) was 32.
